Columns and labels:
MK2 [1] = target: T1, MK2 (Homo sapiens (Human), UniProt P49137); experiment: MK2 cellular assay (Hsp27 phosphorylation in Thp-1 cells); type: cell-based; conditions: differentiated Thp-1 cells, compound 1 hour, 50 ng/ml LPS 15 minutes, phosphorylation of Hsp27; read-out: MK2EC50
Description: Compounds were assayed in Thp-1 human acute monocytic leukemia cells to measure inhibition of MK2 activity. Thp-1 were grown in suspension in T225 flasks. Two days prior to assay, Thp-1 cells were spun down, counted and plated at 1×10^6 cells per well of a 12 well plate in complete media containing 10 ng/ml PMA (phorbol myristate acetate) to differentiate the cells. On day of assay, cells were washed with complete media, and compound was added to differentiated Thp-1 cells for 1 hour. Cells were washed again, and complete media containing 50 ng/ml LPS (lipopolysaccharide) was added. After 15 minutes, cells were washed once with PBS and lysed on ice with BioRad Bioplex lysis buffer. 20 μg total protein from lysates were loaded on gel and blots were probed for phosphorylation of the MK2 substrate Hsp27. Dose response inhibition of MK2 signaling in differentiated Thp-1 cells was used to determine the EC50 for compounds reported in Table A in the column entitled “MK2 EC50.”

[2] = target: p38a activated, mitogen-activated protein kinase-activated protein kinase 2 (MAPKAP-K2 or MK-2) enzyme (Homo sapiens (Human), UniProt P49137); experiment: MK2 Omnia continuous-read kinase assay for compound potency; type: biochemical; conditions: [MK-2]=0.4 nM, [ATP]=1.0 mM, [ST3-Sox]=10 μM
Method in brief: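 Continuous Omnia fluorescence read (λex360/λem485) every 71 s after starting with 0.4 nM MK-2, with 1.0 mM ATP (appKM 8-10 μM) and 10 μM ST3-Sox substrate.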

MK2 [3] = target: T1, MK2; experiment: MK2 modification assessment by whole protein mass spectrometry; type: binding; conditions: intact MK2, 60 min, 10-fold excess of compound to protein
Method in brief: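 MK2 treated with compound is analysed intact by MALDI-TOF after C4 cleanup in sinapinic acid matrix. Percent modification is the centroid mass shift against control MK2 divided by compound mass.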

Sequence of p38a activated, mitogen-activated protein kinase-activated protein kinase 2 (MAPKAP-K2 or MK-2) enzyme (P49137 whole entry): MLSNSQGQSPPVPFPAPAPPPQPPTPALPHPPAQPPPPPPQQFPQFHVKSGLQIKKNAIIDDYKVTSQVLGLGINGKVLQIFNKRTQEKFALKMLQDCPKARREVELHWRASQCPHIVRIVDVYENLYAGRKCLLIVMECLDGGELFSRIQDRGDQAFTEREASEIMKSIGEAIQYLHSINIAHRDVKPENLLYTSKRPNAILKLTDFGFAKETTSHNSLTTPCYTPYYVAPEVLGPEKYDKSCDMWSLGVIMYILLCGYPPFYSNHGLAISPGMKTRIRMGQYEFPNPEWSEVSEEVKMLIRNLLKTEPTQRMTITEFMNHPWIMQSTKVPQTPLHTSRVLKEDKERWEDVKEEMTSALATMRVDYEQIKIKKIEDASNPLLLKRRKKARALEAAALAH
T1 sequence (P49137 whole entry): as above

SMILES	EC50 (MK2 [1]) [nM]	IC50 [2] [nM]	MK2 Mass Mod (MK2 [3])
C=CC(=O)Nc1ccccc1C(=O)Nc1cc(-c2cc3c([nH]2)C2(CCCNC2)CNC3=O)ccn1 (racemic) [Compound I-4, 2-acrylamido-N-(4-(4′-oxo-1′,4′,5′,6′-tetrahydrospiro[piperidine-3,7′-pyrrolo[3,2-c]pyridin]-2′-yl)pyridin-2-yl)benzamide]	> 1000	< 100	E (mass modification of ≥70%)
C=CC(=O)Nc1cc(-c2cc(-c3cc4c([nH]3)C3(CCCNC3)CNC4=O)ccn2)ccc1OCCOC (centres unmarked) [Compound I-3]	> 1000	< 100	E (mass modification of ≥70%)
C=CC(=O)Nc1cc(-c2cc(-c3cc4c([nH]3)C3(CCCNC3)CNC4=O)ccn2)cc(C(F)(F)F)c1 (centres unmarked) [Compound I-9]	> 1000	< 100	E (mass modification of ≥70%)
C=CC(=O)N1CCOc2ccc(NC(=O)c3ccc4cc5n(c4c3)CCNC5=O)cc21 [Compound V-6, N-(4-acryloyl-3,4-dihydro-2H-benzo[b][1,4]oxazin-6-yl)-1-oxo-1,2,3,4-tetrahydropyrazino[1,2-a]indole-7-carboxamide]	> 1000	< 100	E (mass modification of ≥70%)
C=CC(=O)Nc1cc(NC(=O)c2ccc3cc4n(c3c2)C2(CCC2)CNC4=O)ccc1F [Compound V-54, N-(3-acrylamido-4-fluorophenyl)-1′-oxo-2′,3′-dihydro-1′H-spiro[cyclobutane-1,4′-pyrazino[1,2-a]indole]-7′-carboxamide]	101 to 500	101 to 500	E (mass modification of ≥70%)
C=CC(=O)Nc1ncccc1NC(=O)c1ccc2cc3n(c2c1)C1(CCC1)CNC3=O [Compound V-57, N-(2-acrylamidopyridin-3-yl)-1′-oxo-2′,3′-dihydro-1′H-spiro[cyclobutane-1,4′-pyrazino[1,2-a]indole]-7′-carboxamide]	101 to 500	< 100	E (mass modification of ≥70%)
C=CC(=O)Nc1cc(C2CCN(C)CC2)cc2oc(-c3ccc4cc5n(c4c3)C3(CCC3)CNC5=O)nc12 [Compound V-61, N-(6-(1-methylpiperidin-4-yl)-2-(1′-oxo-2′,3′-dihydro-1′H-spiro[cyclobutane-1,4′-pyrazino [1,2-a]indol]-7′-yl)benzo[d]oxazol-4-yl)acrylamide]	< 100	< 100	E (mass modification of ≥70%)
C=CC(=O)Nc1cc(Cl)cc2oc(-c3ccc4cc5n(c4c3)C3(CCC3)CNC5=O)nc12 [Compound V-62, N-(6-chloro-2-(1′-oxo-2′,3′-dihydro-1′H-spiro[cyclobutane-1,4′-pyrazino [1,2-a]indol]-7′-yl)benzo[d]oxazol-4-yl)acrylamide]	101 to 500	101 to 500	E (mass modification of ≥70%)
C=CC(=O)Nc1cc(-c2cc3c(cn2)CCc2c-3[nH]c3c2C(=O)NCC3)ccc1OC [II-2, N-(2-methoxy-5-(7-oxo-6,7,8,9,10,11-hexahydro-5H-pyrido[3′,4′:4,5]pyrrolo[2,3-f]isoquinolin-2-yl)phenyl)acrylamide]	< 100	< 100	E (mass modification of ≥70%)
C=CC(=O)N1CCC[C@H](NC(=O)c2ccc3sc4c(c3c2)NC[C@@H](C)NC4=O)C1 [III-41]	101 to 500		
C=CC(=O)Nc1cc(-c2cc(Nc3c(N[C@H](C)c4ccccc4)c(=O)c3=O)ccn2)ccc1OC [VI-9, (R)—N-(5-(4-((3,4-dioxo-2-((1-phenylethyl)amino)cyclobut-1-en-1-yl)amino)pyridin-2-yl)-2-methoxyphenyl)acrylamide]		> 1000	G (mass modification ≤30%)

Second part, the compound after the results:

EC50 (MK2 [1]) [nM]	IC50 [2] [nM]	MK2 Mass Mod (MK2 [3])	SMILES
501 to 999	< 100	E (mass modification of ≥70%)	C=CC(=O)Nc1cc(-c2nccc(-c3cc4c([nH]3)C3(CCCNC3)CNC4=O)n2)ccc1OCCOC (racemic) [Compound I-7, N-(2-(2-methoxyethoxy)-5-(4-(4′-oxo-1′,4′,5′,6′-tetrahydrospiro[piperidine-3,7′-pyrrolo[3,2-c]pyridin]-2′-yl)pyrimidin-2-yl)phenyl)acrylamide]
501 to 999	< 100	E (mass modification of ≥70%)	C=CC(=O)Nc1cc(C(=O)Nc2cc(-c3cc4c([nH]3)C3(CCCNC3)CNC4=O)ccn2)ccc1OC(F)(F)F (racemic) [Compound I-23, 3-acrylamido-N-(4-(4′-oxo-1′,4′,5′,6′-tetrahydrospiro[piperidine-3,7′-pyrrolo[3,2-c]pyridin]-2′-yl)pyridin-2-yl)-4-(trifluoromethoxy)benzamide]
101 to 500	< 100	E (mass modification of ≥70%)	C=CC(=O)N1CC(C)Oc2ccc(NC(=O)c3ccc4cc5n(c4c3)C3(CCC3)CNC5=O)cc21 (racemic) [Compound V-50, N-(4-acryloyl-2-methyl-3,4-dihydro-2H-benzo[b][1,4]oxazin-6-yl)-1′-oxo-2′,3′-dihydro-1′H-spiro[cyclobutane-1,4′-pyrazino[1,2-a]indole]-7′-carboxamide (racemic)]
> 1000	> 1000	F (mass modification of 31-69%)	C=CC(=O)NC1CCCC1NC(=O)c1ccc2cc3n(c2c1)C1(CCC1)CNC3=O (racemic) [Compound V-56, N-trans-(2-acrylamidocyclopentyl)-1′-oxo-2′,3′-dihydro-1′H-spiro[cyclobutane-1,4′-pyrazino[1,2-a]indole]-7′-carboxamide (racemic)]
> 1000	< 100	E (mass modification of ≥70%)	C=CC(=O)Nc1cc(-c2cc(-c3cc4c([nH]3)C3(CCCNC3)CNC4=O)ccn2)ccc1F (centres unmarked) [Compound I-8]
101 to 500	< 100	E (mass modification of ≥70%)	C=CC(=O)Nc1cc(NC(=O)c2ccc3cc4n(c3c2)C2(CCC2)CNC4=O)ccc1N1CCN(C)CC1 [Compound V-15, N-(3-acrylamido-4-(4-methylpiperazin-1-yl)phenyl)-1′-oxo-2′,3′-dihydro-1′H-spiro[cyclobutane-1,4′-pyrazino[1,2-a]indole]-7′-carboxamide]
101 to 500	< 100	E (mass modification of ≥70%)	C=CC(=O)N1CCc2ccc(NC(=O)c3ccc4cc5n(c4c3)C3(CCC3)CNC5=O)cc21 [Compound V-45, N-(1-acryloylindolin-6-yl)-1′-oxo-2′,3′-dihydro-1′H-spiro[cyclobutane-1,4′-pyrazino[1,2-a]indole]-7′-carboxamide]
101 to 500	< 100	E (mass modification of ≥70%)	C=CC(=O)N1CC(C)(C)Oc2ccc(NC(=O)c3ccc4cc5n(c4c3)C3(CCC3)CNC5=O)cc21 [Compound V-51, N-(4-acryloyl-2,2-dimethyl-3,4-dihydro-2H-benzo[b][1,4]oxazin-6-yl)-1′-oxo-2′,3′-dihydro-1′H-spiro[cyclobutane-1,4′-pyrazino [1,2-a]indole]-7′-carboxamide]
< 100	< 100	E (mass modification of ≥70%)	C=CC(=O)Nc1cccc2[nH]c(-c3ccc4cc5n(c4c3)C3(CCC3)CNC5=O)nc12 [Compound V-63, N-(2-(1′-oxo-2′,3′-dihydro-1′H-spiro[cyclobutane-1,4′-pyrazino [1,2-a]indol]-7′-yl)-1H-benzo[d]imidazol-4-yl)acrylamide]
< 100	< 100	E (mass modification of ≥70%)	C=CC(=O)Nc1cc(-c2cc3c(cn2)CCc2c-3[nH]c3c2C(=O)NCC3)ccc1N1CCN(C)CC1 [II-1, N-(2-(4-methylpiperazin-1-yl)-5-(7-oxo-6,7,8,9,10,11-hexahydro-5H-pyrido[3′,4′:4,5]pyrrolo[2,3-f]isoquinolin-2-yl)phenyl)acrylamide]
101 to 500	101 to 500		C=CC(=O)Nc1cc(C)cc(-c2cc3c(ccc4c5c([nH]c43)CCC5=O)cn2)c1 [II-e-22, N-(3-methyl-5-(7-oxo-7,8,9,1-tetrahydrocyclopenta[4,5]pyrrolo[2,3-f]isoquinolin-2-yl)phenyl)acrylamide]
< 100			C=CS(=O)(=O)N1CCC[C@H](NC(=O)c2ccc3sc4c(c3c2)NC[C@@H](C)NC4=O)C1 [III-43]
< 100	< 100		C=CC(=O)Nc1cc(-c2ccc3c(ccc4sc5c(c43)NC[C@@H](C)NC5=O)n2)ccc1OC(F)(F)F [III-45, (R)—N-(5-(10-methyl-8-oxo-9,10,11,12-tetrahydro-8H-[1,4]diazepino[5′,6′:4,5]thieno[3,2-f]quinolin-3-yl)-2-(trifluoromethoxy)phenyl)acrylamide]
